Measurements reported in patent US6420381B1, “Naphthyridine derivatives” (Sumitomo Pharmaceuticals Company, Limited, priority 1998, dated 2002).
Structures can show the parent of a compound that is named as a salt.

What was measured:
ACAT [1] = target: T1, ACAT (Rattus norvegicus, UniProt O70536); experiment: Assay of ACAT inhibitory activity in a macrophage derived from rat peritoneal; type: cell-based; conditions: [9,10-3H]oleic acid
T1 construct: The rat peritoneal-derived macrophage was prepared; endogenous in cells; host or cells: rat peritoneal macrophages (primary)
T1 sequence (O70536 1-545): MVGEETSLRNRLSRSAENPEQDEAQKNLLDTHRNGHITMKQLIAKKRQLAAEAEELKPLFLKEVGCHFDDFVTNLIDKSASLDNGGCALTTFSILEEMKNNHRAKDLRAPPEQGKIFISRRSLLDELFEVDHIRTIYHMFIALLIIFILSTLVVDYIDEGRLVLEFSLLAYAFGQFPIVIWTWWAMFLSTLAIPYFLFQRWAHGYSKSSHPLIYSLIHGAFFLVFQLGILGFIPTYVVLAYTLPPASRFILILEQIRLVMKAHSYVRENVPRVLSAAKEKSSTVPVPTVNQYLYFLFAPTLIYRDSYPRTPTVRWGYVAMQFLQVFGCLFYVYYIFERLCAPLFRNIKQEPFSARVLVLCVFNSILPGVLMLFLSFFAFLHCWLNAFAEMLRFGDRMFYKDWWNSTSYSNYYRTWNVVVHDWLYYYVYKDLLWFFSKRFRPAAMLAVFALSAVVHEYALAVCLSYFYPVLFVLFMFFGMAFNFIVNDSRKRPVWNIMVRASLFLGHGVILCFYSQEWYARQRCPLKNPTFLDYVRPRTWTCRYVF
Protocol: 2. Assay of ACAT inhibitory activity in a macrophage derived from rat peritoneal:
The rat peritoneal-derived macrophage was prepared according to the method disclosed in the literature: Biochimica et Biophysica Acta, 1126, 73-80, 1992. The ACAT activity was determined by a modified method of the method disclosed in the above literature: Biochimica et Biophysica Acta, 1126, 73-80, 1992, i.e., using radioactive [9,10-^3H]oleic acid and exogenous cholesterol contained in the liposome which was re-constituted according to the method disclosed in the literature: Biochimica et Biophysica Acta, 1213, 127-134, 1994, and calculated from the radioactivity of the labeled cholesterolyl oleate.

ACAT [2] = experiment: Assay of ACAT inhibitory activity in a specimen prepared from rabbit liver; type: biochemical, New Zealand white rabbit; conditions: enzyme specimen from liver of cholesterol-fed rabbit, [1-14C]oleoyl-CoA
Protocol: 1. Assay of ACAT inhibitory activity in a specimen prepared from rabbit liver:
An enzyme specimen ACAT was prepared according to the method disclosed in the literature: J. Lipid. Research, 30, 681-690, 1989, from the liver of a New Zealand white rabbit, which had been fed with 1% cholesterol feed for one month. The ACAT activity was determined according to the method disclosed in the literature: J. Lipid Research, 24, 1127-1134, 1983, i.e., using radioactive [1-^14C]oleoyl-CoA and endogenous cholesterol contained in the liver microsome, and calculated from the radioactivity of the labeled cholesterol oleate.

melting point [°C]	inhibition at 1 µM (ACAT [1]; 10^−6 M, read-out: ACAT inhibitory rate (%) 10^−6 M) [%]	ACAT inhibitory rate (%) 10^−6 M (ACAT [1]) [%]	Compound	ACAT inhibitory rate (%) 10^−6 M (ACAT [2]) [%]
174 to 175	–	–	CCCCn1c(=O)c(NC(=O)Nc2cc(CN(C)C)ccc2C(C)(C)C)c(-c2cccc(OC)c2)c2cccnc21 (as salt: hydrochloride) [Example 30]	–
163 to 165	–	–	CCCCn1c(=O)c(NC(=O)Nc2cc(CNC)ccc2C(C)(C)C)c(-c2cccc(OC)c2)c2cccnc21 (as salt: hydrochloride) [Example 31]	–
158 to 161	–	–	CCCCn1c(=O)c(NC(=O)Nc2cc(CNCC)ccc2C(C)(C)C)c(-c2cccc(OC)c2)c2cccnc21 (as salt: hydrochloride) [Example 32]	–
–	97	–	CCCCn1c(=O)c(NC(=O)Nc2cc(CN3CCOCC3)ccc2C(C)(C)C)c(-c2cccc(OC)c2)c2cccnc21 [Example 1, N-[1-butyl-4-(3-methoxyphenyl)-1,2-dihydro-2-oxo-1,8-naphthyridin-3yl]-N′-[2-tert-butyl-5-(morpholinomethyl)phenyl]urea]	98
–	–	73	N-[1-butyl-4-(3-methoxyphenyl)-1,2-dihydro-2-oxo-1,8-naphthyridin-3-yl]-N′-[2-tert-butyl-5-(1-pyrazolylmethyl)phenyl]urea [Example 19]	99
